Test results taken from patent US12516056B2, “Compounds for inhibition of janus kinase 1” (MANKIND PHARMA LTD., priority 2019, dated 2026).

What was measured:
Recombinant JAK1 = target: T1, Recombinant JAK1 (Homo sapiens, UniProt P23458); assay: JAK biochemical assay (LANCE Ultra TR-FRET), JAK1; conditions: recombinant JAK1, TR-FRET; read-out: Biochemical Assay (μM) JAK1
T1 construct: purchased Carna Biosciences
Method in brief: (§1)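 Kinase reactions ran in buffer of 50 mM HEPES pH 7.5 with 1 mM EGTA, 10 mM MgCl2, 2 mM DTT and 0.01% Tween-20, using recombinant enzyme. Phosphorylated ULight substrate was detected by TR-FRET, and compound effect expressed as % inhibition against vehicle.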

Recombinant JAK2 = target: T2, Recombinant JAK2 (Homo sapiens, UniProt O60674); assay: JAK biochemical assay (LANCE Ultra TR-FRET), JAK2; conditions: recombinant JAK2, TR-FRET; read-out: Biochemical Assay (μM) JAK2
T2 construct: purchased Carna Biosciences
Method in brief: as §1

Recombinant JAK3 = target: T3, Recombinant JAK3 (Homo sapiens, UniProt P52333); assay: JAK biochemical assay (LANCE Ultra TR-FRET), JAK3; conditions: recombinant JAK3, TR-FRET; read-out: Biochemical Assay (μM) JAK3
T3 construct: purchased Carna Biosciences
T3 sequence (P52333 1-1124): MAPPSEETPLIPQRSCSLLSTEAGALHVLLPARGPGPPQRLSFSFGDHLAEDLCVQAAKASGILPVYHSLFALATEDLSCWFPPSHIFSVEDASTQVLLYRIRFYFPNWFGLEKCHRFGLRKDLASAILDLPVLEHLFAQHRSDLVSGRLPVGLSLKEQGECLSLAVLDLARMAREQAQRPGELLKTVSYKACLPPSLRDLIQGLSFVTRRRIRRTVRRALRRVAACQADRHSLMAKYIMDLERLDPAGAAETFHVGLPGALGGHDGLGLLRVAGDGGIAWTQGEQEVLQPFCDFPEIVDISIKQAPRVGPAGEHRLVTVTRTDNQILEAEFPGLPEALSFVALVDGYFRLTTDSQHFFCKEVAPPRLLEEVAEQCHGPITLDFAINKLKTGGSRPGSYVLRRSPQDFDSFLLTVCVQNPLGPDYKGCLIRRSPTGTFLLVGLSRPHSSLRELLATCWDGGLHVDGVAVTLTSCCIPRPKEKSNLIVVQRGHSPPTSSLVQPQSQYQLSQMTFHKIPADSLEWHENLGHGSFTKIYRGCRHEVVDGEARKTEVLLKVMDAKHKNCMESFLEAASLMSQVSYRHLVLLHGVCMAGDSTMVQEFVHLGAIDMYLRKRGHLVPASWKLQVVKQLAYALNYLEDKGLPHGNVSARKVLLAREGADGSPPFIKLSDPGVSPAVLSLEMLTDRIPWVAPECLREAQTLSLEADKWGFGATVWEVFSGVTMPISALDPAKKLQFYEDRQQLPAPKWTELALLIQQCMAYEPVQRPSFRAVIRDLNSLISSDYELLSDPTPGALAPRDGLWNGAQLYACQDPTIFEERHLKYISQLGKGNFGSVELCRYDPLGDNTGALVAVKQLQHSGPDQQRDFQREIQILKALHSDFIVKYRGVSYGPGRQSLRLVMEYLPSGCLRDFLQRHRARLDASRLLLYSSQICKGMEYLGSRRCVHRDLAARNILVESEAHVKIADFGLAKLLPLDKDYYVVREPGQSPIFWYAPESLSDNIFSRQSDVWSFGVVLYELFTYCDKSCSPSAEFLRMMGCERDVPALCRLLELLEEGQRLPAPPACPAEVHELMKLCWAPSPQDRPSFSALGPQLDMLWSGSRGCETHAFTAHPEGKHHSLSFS
Method in brief: as §1

Recombinant TYK2 = target: T4, Recombinant TYK2 (Homo sapiens, UniProt P29597); assay: JAK biochemical assay (LANCE Ultra TR-FRET), TYK2; conditions: recombinant TYK2, TR-FRET; read-out: Biochemical Assay (μM) TYK2
T4 construct: purchased Carna Biosciences
Method in brief: as §1

[1] = tested on: STAT3 phosphorylation by IL-6 in TF-1 cells; assay: JAK cellular assay: STAT3 phosphorylation by IL-6 in TF-1 cells (HTRF); type: cell-based; conditions: Homo sapiens, TF-1, TF-1 cells, IL-6 30 ng/ml, pSTAT3 HTRF; read-out: Cell Based Assay (μM) TF-1/IL-6/pSTAT3
Method in brief: (§2)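 Phospho-STAT3 (IL-6, 30 ng/ml) and phospho-STAT5 (GMCSF, 5 ng/ml) read by HTRF in lysates after 20 min cytokine exposure, minus unstimulated-cell background. Cells were serum-starved overnight, plated at 120,000/well, given compound 30 min at 37 °C beforehand; DMSO 0.2% final.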

[2] = tested on: STAT5 phosphorylation by GMCSF in TF-1 cells; assay: JAK cellular assay: STAT5 phosphorylation by GMCSF in TF-1 cells (HTRF); type: cell-based; conditions: Homo sapiens; TF-1 cells, GMCSF 5 ng/ml, pSTAT5 HTRF; read-out: Cell Based Assay (μM) TF-1/GMCSF/pSTAT5
Method in brief: as §2

T2 sequence (O60674 whole entry): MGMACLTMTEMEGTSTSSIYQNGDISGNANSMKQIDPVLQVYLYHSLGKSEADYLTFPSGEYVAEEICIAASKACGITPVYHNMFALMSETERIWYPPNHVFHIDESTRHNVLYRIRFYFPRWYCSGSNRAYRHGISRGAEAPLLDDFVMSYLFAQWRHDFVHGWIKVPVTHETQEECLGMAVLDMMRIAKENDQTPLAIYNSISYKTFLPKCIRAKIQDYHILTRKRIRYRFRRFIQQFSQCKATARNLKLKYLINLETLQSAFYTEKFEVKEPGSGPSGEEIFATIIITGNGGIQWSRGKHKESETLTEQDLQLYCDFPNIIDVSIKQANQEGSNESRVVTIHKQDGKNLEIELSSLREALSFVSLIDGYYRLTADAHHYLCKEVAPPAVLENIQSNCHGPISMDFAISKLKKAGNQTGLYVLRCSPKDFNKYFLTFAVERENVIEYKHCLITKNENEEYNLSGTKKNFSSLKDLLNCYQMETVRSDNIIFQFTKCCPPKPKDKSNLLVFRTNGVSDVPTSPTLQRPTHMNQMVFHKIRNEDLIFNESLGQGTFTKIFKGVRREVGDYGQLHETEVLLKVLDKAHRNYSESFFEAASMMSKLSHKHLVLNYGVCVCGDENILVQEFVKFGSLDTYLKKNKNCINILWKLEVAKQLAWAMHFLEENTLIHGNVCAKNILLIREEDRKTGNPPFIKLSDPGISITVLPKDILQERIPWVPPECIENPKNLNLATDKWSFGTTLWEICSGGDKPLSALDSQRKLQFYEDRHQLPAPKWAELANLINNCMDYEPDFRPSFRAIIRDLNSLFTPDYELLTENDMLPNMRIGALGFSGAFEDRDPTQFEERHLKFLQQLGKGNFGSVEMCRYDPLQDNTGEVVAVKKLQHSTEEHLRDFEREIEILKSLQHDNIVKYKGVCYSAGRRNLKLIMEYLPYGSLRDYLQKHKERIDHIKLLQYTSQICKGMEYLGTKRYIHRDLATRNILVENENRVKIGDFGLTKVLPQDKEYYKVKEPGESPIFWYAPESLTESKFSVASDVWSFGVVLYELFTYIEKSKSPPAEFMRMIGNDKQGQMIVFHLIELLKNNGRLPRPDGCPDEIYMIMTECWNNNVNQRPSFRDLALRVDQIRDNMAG
T4 sequence (P29597 whole entry): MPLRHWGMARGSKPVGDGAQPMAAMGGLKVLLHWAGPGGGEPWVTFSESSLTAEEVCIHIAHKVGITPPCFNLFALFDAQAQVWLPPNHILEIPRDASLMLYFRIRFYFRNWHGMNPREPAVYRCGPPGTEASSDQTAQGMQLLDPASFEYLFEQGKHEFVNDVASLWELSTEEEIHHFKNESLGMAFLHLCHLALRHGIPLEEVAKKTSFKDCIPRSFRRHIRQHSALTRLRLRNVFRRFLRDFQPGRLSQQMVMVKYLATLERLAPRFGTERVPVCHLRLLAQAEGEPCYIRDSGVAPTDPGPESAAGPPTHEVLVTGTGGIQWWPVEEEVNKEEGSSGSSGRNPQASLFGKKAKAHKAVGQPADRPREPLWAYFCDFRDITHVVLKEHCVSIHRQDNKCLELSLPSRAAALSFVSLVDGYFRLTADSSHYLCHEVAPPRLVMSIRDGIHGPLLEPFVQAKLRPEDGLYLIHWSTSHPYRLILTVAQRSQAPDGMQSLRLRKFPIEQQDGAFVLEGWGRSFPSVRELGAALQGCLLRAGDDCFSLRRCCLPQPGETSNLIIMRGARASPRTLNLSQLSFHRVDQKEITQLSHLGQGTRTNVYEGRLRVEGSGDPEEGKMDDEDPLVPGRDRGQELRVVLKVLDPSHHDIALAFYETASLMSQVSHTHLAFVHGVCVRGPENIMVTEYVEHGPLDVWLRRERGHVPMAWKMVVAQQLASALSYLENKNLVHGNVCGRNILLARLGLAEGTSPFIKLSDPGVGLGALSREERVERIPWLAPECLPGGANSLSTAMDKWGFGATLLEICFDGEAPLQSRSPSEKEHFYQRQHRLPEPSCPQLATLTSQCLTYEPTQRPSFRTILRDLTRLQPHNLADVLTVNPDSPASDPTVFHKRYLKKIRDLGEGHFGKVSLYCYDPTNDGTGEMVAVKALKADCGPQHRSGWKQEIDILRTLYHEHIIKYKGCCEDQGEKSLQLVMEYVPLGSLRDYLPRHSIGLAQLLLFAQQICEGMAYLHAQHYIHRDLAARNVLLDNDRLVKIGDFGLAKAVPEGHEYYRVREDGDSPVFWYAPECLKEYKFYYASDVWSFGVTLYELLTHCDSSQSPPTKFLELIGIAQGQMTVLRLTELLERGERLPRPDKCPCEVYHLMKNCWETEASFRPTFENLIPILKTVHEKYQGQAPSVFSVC
T1 sequence (P23458 whole entry): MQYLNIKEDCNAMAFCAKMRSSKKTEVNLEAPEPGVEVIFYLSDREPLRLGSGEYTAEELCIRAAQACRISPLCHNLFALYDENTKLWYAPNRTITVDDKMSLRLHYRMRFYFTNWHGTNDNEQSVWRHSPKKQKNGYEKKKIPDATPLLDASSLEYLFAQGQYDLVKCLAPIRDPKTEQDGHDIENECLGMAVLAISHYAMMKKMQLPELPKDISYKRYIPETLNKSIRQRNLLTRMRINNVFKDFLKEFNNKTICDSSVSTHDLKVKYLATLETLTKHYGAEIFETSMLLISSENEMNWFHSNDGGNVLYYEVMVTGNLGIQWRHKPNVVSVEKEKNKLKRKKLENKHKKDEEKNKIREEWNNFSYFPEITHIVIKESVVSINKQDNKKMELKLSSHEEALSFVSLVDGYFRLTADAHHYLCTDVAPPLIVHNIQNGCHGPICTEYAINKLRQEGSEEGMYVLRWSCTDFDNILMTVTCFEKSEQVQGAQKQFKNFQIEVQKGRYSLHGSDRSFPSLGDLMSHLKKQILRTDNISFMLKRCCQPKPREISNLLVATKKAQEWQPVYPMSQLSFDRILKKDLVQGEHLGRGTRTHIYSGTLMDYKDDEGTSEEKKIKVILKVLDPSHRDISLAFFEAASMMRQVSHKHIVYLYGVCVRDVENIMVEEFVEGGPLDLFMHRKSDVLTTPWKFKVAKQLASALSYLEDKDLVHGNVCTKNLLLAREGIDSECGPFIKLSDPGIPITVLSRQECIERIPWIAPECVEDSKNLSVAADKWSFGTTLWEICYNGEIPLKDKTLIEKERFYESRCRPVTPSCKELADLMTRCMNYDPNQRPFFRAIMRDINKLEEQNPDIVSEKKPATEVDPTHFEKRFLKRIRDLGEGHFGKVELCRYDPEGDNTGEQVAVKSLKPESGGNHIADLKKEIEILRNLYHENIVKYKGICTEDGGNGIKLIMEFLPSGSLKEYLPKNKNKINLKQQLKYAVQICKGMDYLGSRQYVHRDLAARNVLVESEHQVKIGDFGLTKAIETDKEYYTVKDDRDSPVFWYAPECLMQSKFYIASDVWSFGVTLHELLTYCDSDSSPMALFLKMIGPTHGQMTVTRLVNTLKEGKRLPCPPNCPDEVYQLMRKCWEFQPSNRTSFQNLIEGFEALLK

SMILES	IC50 (Recombinant JAK1)	IC50 (Recombinant JAK2)	IC50 (Recombinant JAK3)	IC50 (Recombinant TYK2)	IC50 [1]	IC50 [2]
N#CCc1ccc(-n2cc(-c3ccnc4[nH]cnc34)cn2)cc1 [Example 1099, 2-(4-(4-(3H-imidazo[4,5-b]pyridin-7-yl)-1H-pyrazol-1-yl)phenyl)acetonitrile]	< 0.5 µM	< 0.5 µM	< 0.5 µM	> 1 µM	> 1 µM	> 10 µM
N#CCC(NC(=O)n1cc(-c2ccnc3[nH]c(=O)[nH]c23)cn1)C(F)(F)F (stereo not drawn) [Example 1050, N-(3-cyano-1,1,1-trifluoropropan-2-yl)-4-(2,3-dihydro-2-oxo-1H-imidazo[4,5-b]pyridin-7-yl)-1H-pyrazole-1-carboxamide]	< 0.5 µM	< 0.5 µM	< 0.5 µM	< 0.5 µM	< 10 µM	> 10 µM
FC(F)(F)C(CNC1CC1)c1ccc(-n2cc(-c3ccnc4[nH]cnc34)cn2)nc1 (stereo not drawn) [Example 1212, N-(2-(6-(4-(3H-imidazo[4,5-b]pyridin-7-yl)-1H-pyrazol-1-yl)pyridin-3-yl)-3,3,3-trifluoropropyl)cyclopropanamine]	< 0.1 µM	< 0.1 µM	< 0.1 µM	> 0.5 µM	> 0.75 µM	> 1 µM
CS(=O)(=O)Cc1ccc(-n2cc(-c3ccnc4[nH]cnc34)cn2)nc1 [Example 1080, 7-(1-(5-((methylsulfonyl)methyl)pyridin-2-yl)-1H-pyrazol-4-yl)-3H-imidazo[4,5-b]pyridine]	0.068 µM	< 0.5 µM	< 0.5 µM	> 10 µM	> 1 µM	> 10 µM
CC(C)[C@@H](C#N)NC(=O)n1cc(-c2ccnc3[nH]cnc23)cn1 [Example 1073, N-((S)-1-cyano-2-methylpropyl)-4-(3H-imidazo[4,5-b]pyridin-7-yl)-1H-pyrazole-1-carboxamide]	> 1 µM	> 0.5 µM	> 0.5 µM	> 0.5 µM	> 1 µM	> 10 µM
c1cc(-c2cnn(Cc3cnco3)c2)c2nc[nH]c2n1 [Example 1077, 7-(1-((oxazol-5-yl)methyl)-1H-pyrazol-4-yl)-3H-imidazo[4,5-b]pyridine]	> 1 µM	> 1 µM	> 1 µM	> 10 µM	> 10 µM	> 10 µM
CN(CCC(c1ccc(-n2cc(-c3ccnc4[nH]cnc34)cn2)nc1)C(F)(F)F)C1CC1 (stereo not drawn) [Example 1195, N-(3-(6-(4-(3H-imidazo[4,5-b]pyridin-7-yl)-1H-pyrazol-1-yl)pyridin-3-yl)-4,4,4-trifluorobutyl)-N-methylcyclopropanamine]	< 0.1 µM	< 0.1 µM	< 0.1 µM	> 1 µM	> 0.5 µM	> 1 µM
OCC(Cc1ccc(-n2cc(-c3ccnc4[nH]cnc34)cn2)nc1)C(F)(F)F (stereo not drawn) [Example 1191, 3-(6-(4-(3H-imidazo[4,5-b]pyridin-7-yl)-1H-pyrazol-1-yl)pyridin-3-yl)-2-(trifluoromethyl)propan-1-ol]	< 0.1 µM	< 0.1 µM	< 0.1 µM	> 1 µM	> 1 µM	> 1 µM
c1cc(-c2cnn(-c3ccc(CC4COC4)cn3)c2)c2nc[nH]c2n1 [Example 1081, 7-(1-(5-((oxetan-3-yl)methyl)pyridin-2-yl)-1H-pyrazol-4-yl)-3H-imidazo[4,5-b]pyridine]	< 0.5 µM	> 0.5 µM	< 0.5 µM	> 10 µM	> 1 µM	> 10 µM
